{"source": "patent US11299715B2", "about": "“Use of iNOS inhibitors to increase viral yield in culture” (priority 2013, dated 2022)", "key": {"NOS1 = nNOS": {"tested_on": "NOS1 = nNOS", "test": "Affymetrix Gen Array, NOS1 expression in 293 cells", "type": "cell-based, human", "settings": "for NOS1 expression, ATA: ATA alone", "procedure": "Confluent 293 cells (2.4×10^6 cells in a 75 cm^2 flask) were cultured in DMEM+10% FCS for approximately 20 hrs and were then infected with one plaque forming unit per cell (PFU/cell) of HSV-1 MacIntyre Strain for 90 min. ATA at a concentration 20 μM (final) was added 90 min post-infection. The infected cells were harvested at 24 h after infection. Total RNA of sufficient quality and quantity was isolated from suspension using RNeasy Plus Mini Kit (QIAGEN, Valencia, Calif.) according to the manufacturer's instructions. Whole genome expression profiling was performed on Affymetrix Human U133 Plus 2.0 Array by the Asuragen, Inc. 3 μg total RNA was provided as input material.\nOverall, RNA quality assessed on the bioanalyzer had RIN values of >9. Array hybridization and scaling factors were within passing quality control range. After scanning, raw expression CEL files were processed with Affymetrix Expression Console vs.1.1.2 (affymetrix.com). Each CEL file was processed with Robust Multichip Analysis (RMA) and a summarized table was exported as a text file. All downstream genomics and statistical analyses were done with JMP Genomics (version 5) (jmp.com/software/genomics). First, a filtering step was applied to filter-out low expression, specifically, those values below 6 in log^2 mode in at least 2 out of 8 samples. Out of 54,675 total Affy U133 Plus2 probes, 41,569 (76%) probes remained after the cutoff. Two positive control samples were also seen, human brain and pooled human universal reference RNA, respectively, that hybridized well. For future analysis, these two samples were excluded.\nThe first principle component separation (91.7%) is therefore explained by the effect of HSV versus Vehicle. Data was median-normalized across each probe to have a median signal of 0. ANOVA was performed to find significant differential transcripts between HSV versus Vehicle, ATA versus Vehicle, […] versus Vehicle, and HSV+ATA versus HSV alone. Multiple testing corrections were not included, and significant genes were considered less that p-value of 0.01.\nTo identify cell response gene signatures to wtHSV-1 McIntyre infection, transcriptional profiling was done using Affymetrix Human U133 Plus 2.0 Array with 293 cells that were either mock-treated, ATA-treated (ATA), wtHSV-1 McIntyre-infected (HSV) or ATA-treated and wtHSV-1 McIntyre-infected (HSV&ATA) for 24 h. Gene expression changes induced by infection or ATA treatment were identified by referencing the gene expression level for each probe to that corresponding in the uninfected cells sample. HSV-1 infection alone had strong impact on the gene expression profile of 293 cells when compared to untreated cells gene profile."}, "wtHSV-1 KOS strain": {"tested_on": "wtHSV-1 KOS strain", "test": "wtHSV-1 KOS strain propagation in 293, HeLa and Vero cells with ATA", "type": "cell-based, HSV-1", "text": "The wtHSV-1 KOS strain and the ICP27-deficient derivatives of the wtHSV-1 KOS strain: vectors d27-1 (Rice and Knipe, J. Virol. (1990) 64:1704-1715), rHSV-rep2/cap2 and rHSV-EGFP (Kang et al., Gene Ther. (2009) 16:229-239) and their producer ICP27-complementing V27 cell line were obtained from AGTC (Alachua, Fla.). The wtHSV-1 MacIntyre strain, purchased from Advanced Biotechnologies Inc. (ABI, Columbia Md.) and wtHSV-1 KOS strain were propagated in Vero, 293 or HeLa cell lines. Infectious vector particles were harvested 72 hr postinfection by recovering culture supernatant. The titers of HSV-1 stocks in DNase resistant particles/ml (DRP/ml) were determined by Taqman assay. Viral genomes within crude culture medium were quantified via treatment in the presence of DNase I (50 U/ml final; Promega) at 37° C. for 60 min, followed by proteinase K (Invitrogen) digestion (1 U/ml) at 50° C. for 60 min, and then denatured at 95° C. for 30 min. Linearized plasmid pZero 195 UL36 (obtained from AGTC, Inc., Alachua, Fla.) was used to generate standard curves.\nATA (Sigma-A1895 Aurintricarboxylic acid practical grade, ≥85% (titration), powder) stock solution was generated as 500 μM concentration in 100 mM sodium bicarbonate water solution. ATA stock solution was further diluted in DMEM+/−10% fetal bovine serum (FBS, Hyclone, Waltham, Mass.) into concentration ranges of […] ATA (8.5-21 μgATA/ml). The HSV-1 infection at multiplicity of infection of 0.15 (MOI=0.15) (typically 6×10^5 cells in a 6-well plate) was performed in 40% (⅖ vol) of the total final media volume for 1-2 hrs and the remaining media (60% or ⅗ of the total final volume) was added during the dilution step. The cells were then incubated 72 hours and supernatant harvested to perform forming units per milliliter (PFU/ml) and DRP/ml titer assays.\nSupernatants containing virus were harvested after three days as described above. […] Finally, ATA also appeared to inhibit both types of HSV-1 viruses in HeLa cells. Two-way ANOVA; Bonferroni test; −ATA vs. +ATA: ***: p<0.001, ns: p>0.05; n=4 independent experiments.\nIn order to illuminate the ATA mechanism of action by human genome array and the fact that Vero and V27 are monkey-derived cell lines, wtHSV-1 propagation was tested in several human cell lines (FIGS. 4A-4B). A propagation of two wild type HSV-1 (wtHSV-1) strains, KOS and McIntyre, were compared in three cell lines: human embryonic kidney 293 (293 cells), human cervical cancer HeLa cells and African green monkey kidney epithelial Vero cells. The experiments were carried out in 10% FBS-containing media following the ATA I protocol scheme, where 50 μM ATA was supplemented during the infection step and further diluted to 20 μM ATA concentration (see Material and Methods)."}, "iNOS": {"tested_on": "iNOS", "test": "Western blot of iNOS in HSV-1 d27.1-infected V27 cell lysates", "type": "cell-based, African green monkey", "settings": "30 μM ATA; d27.1 MOI 1; V27 lysates 24 h.p.i.; with or without 10% FBS", "procedure": "V27 cells in Dulbecco's Modified Eagles Medium (DMEM) (Hyclone, Waltham, Mass.) were infected with the HSV-1 d27.1 vector at an MOI of 1 and treated with 30 μM ATA (Sigma, St. Louis, Mo.), with or without 10% fetal bovine serum (FBS). Control experiments without ATA were also performed. V27 cell lysates were obtained 24 hours post infection (h.p.i.) and Western blots were run on the lysates and iNOS protein was detected by using purified rabbit anti-iNOS/NOS Type II pAb (BD Biosciences, Cat#610332)."}}}
{"molecule": "O=C(O)C1=CC(=C(c2ccc(O)c(C(=O)O)c2)c2ccc(O)c(C(=O)O)c2)C=CC1=O", "note": "[ATA, 5-((3-carboxy-4-hydroxyphenyl)(3-carboxy-4-oxo-2,5-cyclohexadien-1-ylidene)methyl)-2-hydroxybenzoic acid]", "values": [{"measurement": "NOS1 expression, ATA", "setting": "NOS1 = nNOS; probe 207310_s_at", "value": 1}, {"measurement": "NOS1 expression, HSV + ATA", "setting": "NOS1 = nNOS; probe 207310_s_at, HSV alone 2.79", "value": 1.67}, {"measurement": "NOS1 expression, ATA", "setting": "NOS1 = nNOS; probe 240911_at", "value": 1.02}, {"measurement": "NOS1 expression, HSV + ATA", "setting": "NOS1 = nNOS; probe 240911_at, HSV alone 1.71", "value": 1.5}, {"measurement": "HSV-1 KOS growth in 293 cells", "setting": "wtHSV-1 KOS strain; 50 μM ATA at Step 1, 20 μM after Step 2, 293 cells", "value": "inhibit"}, {"measurement": "propagation of HSV-1 KOS in HeLa cells", "setting": "wtHSV-1 KOS strain; 50 μM ATA at Step 1, 20 μM after Step 2, HeLa cells", "value": "inhibit"}, {"measurement": "yield of wtHSV-1 KOS in Vero cells", "setting": "wtHSV-1 KOS strain; 50 μM ATA at Step 1, 20 μM after Step 2, Vero cells, 10% FBS", "value": "increased"}, {"measurement": "wtHSV-1 KOS titer in Vero cells", "setting": "wtHSV-1 KOS strain; 50 μM ATA at infection, diluted to 20 μM, 10% FBS, n=4, without ATA 1.7×10^8", "value": "9.1×10^8 DRP/ml"}, {"measurement": "293 or Vero titers with ATA, KOS", "setting": "wtHSV-1 KOS strain; summary statement", "value": "up to 1×10^9 DRP/ml"}, {"measurement": "increase of wt HSV-1 KOS yields", "setting": "wtHSV-1 KOS strain; summary statement", "value": 1, "unit": "log"}, {"measurement": "iNOS expression (Western blot)", "setting": "iNOS", "value": "inhibits"}]}
